Measurements published in patent publication US20060040871A1, “Bacterial transforming agent” (priority 2003, published 2006).
Where two headings read alike, the source gives them in different places.

Experiments:
MRSA [1] = assay: MIC of ceftazidime or cefuroxime for MRSA grown with or without GBE (Table 2); assay type: cell-based, Staphylococcus aureus; conditions: Control; for MIC: Staphylococcus aureus
Source text: Importantly, the usefulness of the agents of the present invention is not limited to increasing bacterial sensitivity to methicillin.

MRSA [2] = assay: Antimicrobial plus BTA against recent clinical MRSA isolates (Table 7); assay type: cell-based, Staphylococcus aureus
Source text: The four clinical isolates were isolated from patients during the first three months of 2003. […] An intermediate MRSA has been included, as methicillin-resistance has been achieved by means other than production of PBP2a.

VRE = assay: Antimicrobial plus BTA against VRE (Table 7); assay type: cell-based, enterococci; conditions: +BTA 0.1%

Structure (SMILES): CC(C)(O/N=C(\C(=O)N[C@@H]1C(=O)N2C(C(=O)[O-])=C(C[n+]3ccccc3)CS[C@H]12)c1csc(N)n1)C(=O)O [Ceftazidime, ceftazidime]
- MIC of ceftazidime (MRSA [1]; CD40 (EMRSA-1)): >256 µg/mL
- MIC of ceftazidime (MRSA [1]; E15-97 (EMRSA-15)): >256 µg/mL
- MIC of ceftazidime (MRSA [1]; E16-96 (EMRSA-16)): >256 µg/mL
- MIC of ceftazidime (MRSA [1]; JF1-32 (EMRSA-1)): >256 µg/mL
- MIC of ceftazidime (MRSA [1]; MC01 (EMRSA-1)): >256 µg/mL
- MIC of ceftazidime (MRSA [1]; PS3-32 (EMRSA-1)): >256 µg/mL
- MIC of ceftazidime (MRSA [1]; SN31 (EMRSA-1)): >256 µg/mL
- MIC of ceftazidime (MRSA [1]; ST11 (EMRSA-1)): >256 µg/mL
- MIC of ceftazidime (MRSA [1]; SW2-32 (EMRSA-1)): >256 µg/mL
- MIC (MRSA [1]; MRSA / NCTC 12493, NCTC 12493, read-out: MIC of ceftazidime): > 256 µg/mL
- MIC (MRSA [1]; MRSA, DS09 (EMRSA-1), read-out: MIC of ceftazidime): > 256 µg/mL

Structure (SMILES): CO/N=C(\C(=O)N[C@@H]1C(=O)N2C(C(=O)O)=C(COC(N)=O)CS[C@H]12)c1ccco1 [Cefuroxime, cefuroxime]
- MIC of cefuroxime (MRSA [1]; CD40 (EMRSA-1)): >256 µg/mL
- MIC of cefuroxime (MRSA [1]; E15-97 (EMRSA-15)): >256 µg/mL
- MIC of cefuroxime (MRSA [1]; E16-96 (EMRSA-16)): >256 µg/mL
- MIC of cefuroxime (MRSA [1]; JF1-32 (EMRSA-1)): >256 µg/mL
- MIC of cefuroxime (MRSA [1]; MC01 (EMRSA-1)): >256 µg/mL
- MIC of cefuroxime (MRSA [1]; PS3-32 (EMRSA-1)): >256 µg/mL
- MIC of cefuroxime (MRSA [1]; SN31 (EMRSA-1)): >256 µg/mL
- MIC of cefuroxime (MRSA [1]; ST11 (EMRSA-1)): >256 µg/mL
- MIC of cefuroxime (MRSA [1]; SW2-32 (EMRSA-1)): >256 µg/mL
- MIC (MRSA [1]; MRSA / NCTC 12493, NCTC 12493, read-out: MIC of cefuroxime): > 256 µg/mL
- MIC (MRSA [1]; MRSA, DS09 (EMRSA-1), read-out: MIC of cefuroxime): > 256 µg/mL

Structure (SMILES): CC1=C(C(=O)O)N2C(=O)[C@@H](NC(=O)[C@H](N)c3ccccc3)[C@H]2SC1 [Cephalexin, cephalexin]
- Cephalexin (antimicrobial plus BTA; quantity not named, MIC implied) (MRSA [2]; I-MRSA, cephalexin alone): 32 µg/mL

Structure (SMILES): O=C(O)CNC(=O)c1ccccc1 [HA, Hippuric acid (N-Benzoylglycine)]
- Oxacillin (antimicrobial plus BTA; quantity not named, MIC implied) (MRSA [2]; EMRSA-16, +BTA 0.01%): 6 µg/mL
- Cephalexin (antimicrobial plus BTA; quantity not named, MIC implied) (MRSA [2]; EMRSA-16, +BTA 0.1%): 6 µg/mL
- Oxacillin (antimicrobial plus BTA; quantity not named, MIC implied) (MRSA [2]; EMRSA-16, +BTA 0.1%): 4 µg/mL
- Vancomycin (antimicrobial plus BTA; quantity not named, MIC implied) (MRSA [2]; EMRSA-16, +BTA 0.1%): 0.25 µg/mL
- Oxacillin (antimicrobial plus BTA; quantity not named, MIC implied) (MRSA [2]; EMRSA-17, +BTA 0.01%): 8 µg/mL
- Cephalexin (antimicrobial plus BTA; quantity not named, MIC implied) (MRSA [2]; EMRSA-17, +BTA 0.1%): 8 µg/mL
- Oxacillin (antimicrobial plus BTA; quantity not named, MIC implied) (MRSA [2]; EMRSA-17, +BTA 0.1%): 4 µg/mL
- Vancomycin (antimicrobial plus BTA; quantity not named, MIC implied) (MRSA [2]; EMRSA-17, +BTA 0.1%): 0.25 µg/mL
- Oxacillin (antimicrobial plus BTA; quantity not named, MIC implied) (MRSA [2]; I-MRSA, +BTA 0.01%): 4 µg/mL
- Cephalexin (antimicrobial plus BTA; quantity not named, MIC implied) (MRSA [2]; I-MRSA, +BTA 0.1%): 2 µg/mL
- Oxacillin (antimicrobial plus BTA; quantity not named, MIC implied) (MRSA [2]; I-MRSA, +BTA 0.1%): 2 µg/mL
- Vancomycin (antimicrobial plus BTA; quantity not named, MIC implied) (MRSA [2]; I-MRSA, +BTA 0.1%): < 0.25 µg/mL
- Vancomycin (antimicrobial plus BTA; quantity not named, MIC implied) (VRE): 64 µg/mL
